The values that follow come from patent US11225469B2, “Inhibitors of phosphoglycerate dehydrogenase (PHGDH) and uses thereof” (Whitehead Institute for Biomedical Research, priority 2015, dated 2022).

In one data set the target is GAPDH (Homo sapiens (Human), UniProt P04406). Kind of data set: Counter-screen against GAPDH. The format is biochemical. The following applies: Table E11. On the procedure: (§1) GAPDH substrate buffer contained 210 mM Tris pH 7.4, 2.5 mM NaH2PO4 pH 7.4, 2 mM DL-Glyceraldehyde 3-phosphate, 1.75 mM MgCl2, 0.01 mM NAD+, 0.11 mM resazurin, 0.2 mg/mL BSA, and 0.01% Tween-20. GAPDH enzyme buffer contained 50 mM Tris pH 7.4, 100 mM NaCl, 0.02 mM TCEP, 0.01 mM EDTA, 0.1 mg/mL BSA, 0.42 mg/mL diaphorase, and 2.5 nM GAPDH. The GAPDH, GPD1, and GPD1L assays were run in 384-well plates using the same protocol and readout as the PHGDH assay. […] GPD1 enzyme buffer contained 50 mM Tris pH 7.4, 100 mM NaCl, 0.08 mM TCEP, 0.4 mg/mL BSA, 0.03 μM EDTA, and 0.8 nM GPD1. 70 μL of substrate buffer were mixed with 10 μL enzyme buffer. GPD1L substrate buffer contained 200 mM Tris pH 7.4, 0.05 mM sn-G3-P, 2 mM MgCl2, 0.04 mM NAD+, 0.11 mM resazurin, 0.1 mg/mL BSA, and 0.02% Tween-20. GPD1L enzyme buffer contained 50 mM Tris pH 7.4, 100 mM NaCl, 0.02 mM TCEP, 0.42 mg/mL diaphorase, 0.1 mg/mL BSA, 0.008 μM EDTA, and 16 nM GPD1L. 40 μL of substrate buffer were mixed with 40 μL of enzyme buffer.
Sequence of GAPDH (P04406 whole entry): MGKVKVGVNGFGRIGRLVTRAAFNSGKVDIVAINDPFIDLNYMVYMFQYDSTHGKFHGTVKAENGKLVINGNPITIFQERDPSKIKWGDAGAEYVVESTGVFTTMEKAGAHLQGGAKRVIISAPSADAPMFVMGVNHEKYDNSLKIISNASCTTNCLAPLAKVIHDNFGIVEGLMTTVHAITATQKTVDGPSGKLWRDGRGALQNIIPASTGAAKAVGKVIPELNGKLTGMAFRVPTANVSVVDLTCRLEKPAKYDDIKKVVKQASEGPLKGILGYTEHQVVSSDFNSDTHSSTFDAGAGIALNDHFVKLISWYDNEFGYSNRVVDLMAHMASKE
(§2) The GAPDH and GPD1L assays were read using the same protocol as the PHGDH assay. The GPD1 assay was read using loss of NADH fluorescence (λex=340 nm and λem=460 nm).
On the technique in general: A counterscreen serves to expose hits that act by an unwanted route or on another target.

Another data set concerns the target GPD1L (Homo sapiens (Human), UniProt Q8N335). Kind of data set: Counter-screen against GPD1L. In kind it is biochemical. The following applies: Table E11. On the procedure:
as §1, §2

A further data set in a line: Solubility. In kind it is physicochemical.
Data set [1] deals with PHGDH-independent cell lines (ZR-75-1, SK-MEL-2). Kind of data set: Cytotoxicity (Cell Titer-Glo), other PHGDH-independent cell lines. In kind it is cell-based, human. The protocol: Knockdown of PHGDH is selectively toxic towards PHGDH-dependent cell lines, and minimally toxic towards PHGDH-independent cell lines. […] Cell count was determined by quantitating the amount of ATP present with CellTitreGlo® measurements 96 hours after dosage.
Cells were seeded in white 96-well plates (Greiner) at a density of 2000 cells/well (MDA-MB-468, BT-20, MT-3) or 1000 cells/well (all other cell lines) and allowed to attach for 24 hours. Compounds were prepared in DMSO and dispensed using an HP D300 compound dispenser. Cell viability was assessed with Cell Titer-Glo (Promega) at four days following treatment and luminescence measured with a SpectraMax M5 Plate Reader (Molecular Devices). Luminescence was normalized to an untreated control in identical medium. For rescue experiments, RPMI was supplemented with 40 μM adenosine, uridine, guanosine, cytidine, deoxyadenosine, thymidine, deoxyguanosine, and deoxycytidine and the medium was replaced daily.
In general terms: In ATP-based viability assays light output follows the ATP content of the culture.

The next data set relates to MDA-MB-468 cells. Kind of data set: Metabolite profiling and 13C labeling in MDA-MB-468 cells (LC-MS). In kind it is cell-based, human. On the procedure:
To track the effects of PHGDH inhibition on glycolysis and serine biosynthesis, MDA-MB-231 and MDA-MB-468 cells were fed universally labeled carbon-13 glucose and the intracellular ratio of labeled to unlabeled glucose was measured at the times indicated in FIG. 3E.
Cells were evenly seeded at 400,000 cells per well of a 6-well plate and allowed to attach for 24 hours. Prior to all labeling experiments, cells were pretreated with 10 μM compound or an equivalent volume of DMSO in RPMI for 1 hour. For steady-state metabolite concentrations, cells were washed with PBS prior to pretreatment and treatment in RPMI lacking serine and glycine. For labeling experiments, U-^13C-glucose, U-^13C-serine, or U-^13C-glycine replaced the corresponding unlabeled RPMI component. Cells were washed in 4° C. 0.9% (w/v) NaCl in LCMS-grade water and extracted in 1 mL/well of 80:20 (v/v) methanol:water with 0.01 ng/mL Val-d8 and Phe-d8 as internal extraction standards. The extraction solvent was dried under nitrogen gas and metabolite samples were stored at −80° C. until analysis. Triplicate identically seeded wells were trypsinzed and analyzed with a Multisizer Coulter Counter (Beckman Coulter) to obtain cell counts and total cell volumes for normalization.
Dried metabolites were resuspended in 100 μL water, centrifuged at 13,000×g at 4° C. for 10 minutes, and the supernatant recovered for analysis. Chromatographic separation was achieved by injecting 1 pi of sample on a SeQuant ZIC-pHILIC Polymeric column (2.1 3 150 mm […], EMD Millipore). Flow rate was set to 0.1 ml per minute, column compartment was set to 25° C., and autosampler sample tray was set to 4° C. Mobile Phase A consisted of 20 mM ammonium carbonate, 0.1% ammonium hydroxide. Mobile Phase B was 100% acetonitrile. The mobile phase gradient (% B) was as follows: 0 min 80%, 30 min 20%, 31 min 80%, 42 min 80%. All mobile phase was introduced into the ionization source set with the following parameters: sheath gas=40, auxiliary gas=15, sweep gas=5, spray voltage=−3.1 kV or +3.0 kV, capillary temperature=275° C., S-lens RF level=40, probe temperature=350° C. Metabolites were monitored using a polarity-switching full-scan method and identified by accurate mass (±20 ppm) and retention time within 15 seconds of a previously run pure standard. Metabolite peaks were identified and integrated with Xcalibur v.2.2 software (Thermo Fisher Scientific) and normalized to internal standard and to total cell volume, m/z ratios for stable isotopically labeled metabolites were obtained from IsoMETLIN (See, e.g., Cho, K. et al. “isoMETLIN: a database for isotope-based metabolomics.” Anal Chem 86, 9358-9361 (2014)) and corrected for natural abundance.

Another data set relates to MDA-MB-468 tumors. The data set can be described thus: U-13C-glucose infusion in mice bearing MDA-MB-468 tumors (target engagement). In kind it is in vivo, mouse. On the procedure:
Thus, the PHGDH inhibitors described herein engage PHGDH in tumors and recapitulate the selective toxicity of PHGDH knockdown in vivo.
Chronic catheters were surgically implanted into the jugular veins of normal or tumor bearing animals 3-4 days prior to infusions. Animals were fasted for 6 hours (morning fast) and infusions were performed in free-moving, conscious animals at 1:00 pm for all studies to minimize metabolic changes associated with circadian rhythm. […] Animals were terminally anesthetized with sodium pentobarbital and all tissues were fully harvested in less than 5 minutes to preserve the metabolic state. Tumors and adjacent lung tissue were carefully dissected and rapidly frozen using a BioSqueezer (BioSpec Products) to ensure rapid quenching of metabolism throughout the tissue section. Tissues were stored at −80 C and extracted with 80:20 (v/v) methanol:water in the same manner as cells prior to LCMS analysis.

For data set [2], the system named is serine biosynthetic pathway. The data set can be described thus: Labeled serine in brain after tail vein injection of 13C glucose. In kind it is in vivo, mouse. The following applies: 35 mg/kg. The protocol: The mice were sacrificed at the indicated times, and the fraction of labeled serine in the brain was determined by LC-MS and normalized to the fraction of labeled lactate (FIG. 4J).

SMILES strings stand for the structures.

Sequence of GPD1L (Q8N335 whole entry): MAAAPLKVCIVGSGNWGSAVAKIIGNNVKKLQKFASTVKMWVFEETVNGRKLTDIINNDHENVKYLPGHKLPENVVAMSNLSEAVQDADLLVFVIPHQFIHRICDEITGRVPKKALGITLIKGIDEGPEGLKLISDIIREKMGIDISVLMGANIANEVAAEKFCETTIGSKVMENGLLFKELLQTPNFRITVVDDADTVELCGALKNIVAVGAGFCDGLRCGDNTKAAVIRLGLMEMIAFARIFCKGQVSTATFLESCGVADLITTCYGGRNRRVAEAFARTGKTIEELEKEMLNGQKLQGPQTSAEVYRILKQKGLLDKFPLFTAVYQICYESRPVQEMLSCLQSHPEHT

One may read the IC50 as the point on the concentration scale where inhibition reaches its midpoint. Higher therefore signals lower potency. On to `Cc1cc(C)nc(NC(=S)N2CCN(Cc3ccc(C(F)(F)F)cc3)CC2)c1` [Compound 267, N-(4,6-dimethylpyridin-2-yl)-4-(4-(trifluoromethyl)benzyl)piperazine-1-carbothioamide], for which the IC50 against GAPDH and against GPD1L was at least 100 µM each time. Besides, the aqueous solubility result in the data set “Solubility” is reported as “reasonable aqueous solubility”. Besides, in data set [1], the toxicity entry was “no toxicity”. Besides, the intracellular glucose concentration result with MDA-MB-468 cells was “did not change”. In addition, the “incorporation of 13C from exogenous U-13C-serine into AMP and dTMP” value in the data set with MDA-MB-468 cells (treatment for 4 hours) is “decreased”. Also, the “reduction of labeled (glucose-derived) intracellular serine” value in the data set on MDA-MB-468 cells (universally labeled carbon-13 glucose) is above 75%. Besides, in the data set with MDA-MB-468 cells (washout), the “reversibility of inhibition of serine synthesis in cells” value is given as “reversible”. The “production of glucose-derived serine in tumors” value with MDA-MB-468 tumors is recorded as “decreased production”. For the same molecule, the “incorporation of carbon-13 from glucose into serine in the brain” value in data set [2] is “block incorporation”.
